The text below walks through data of US20090264371A1, “ANTIPROLIFERATIVE PEPTIDES AND ANTIBODIES FOR THEIR DETECTION” (BIOINCEPT LLC, priority 2004, published 2009).

In data set [1] the test system is renal carcinoma cells (RCC). As to the kind of experiment: Viability of short-term cultured renal carcinoma cells (P1 and JC-1 staining). Format: cell-based. Here is the method:
Mitochondrial membrane potential. A stock solution of JC-1 dye (100 μg/ml in DMSO) is prepared. Cells are preincubated with the peptide of SEQ ID NO: 2 for up to 24 hours. JC-1 reagent is diluted just prior to use. For each assay, 100 μl of stock solution is diluted to 1 ml using pre-warmed cell culture medium and the solution is vortexed. 40 μl of diluted JC-1 is added to each well and incubated at 37° C. in 5% CO2 incubator for 25-30 min. Medium is replaced with pre-warmed PBS. Samples are detected by fluorescent signals by using flow cytometry results compared to buffer only treated controls. JC-1 reagent accumulates in the intact mitochondria, giving off a bright red fluorescence. In apoptotic cells, JC-1 reagent cannot accumulate in the mitochondria due to the altered mitochondrial membrane potential.
FIG. 2 further confirms developmental peptides effectiveness as compared to chemotherapy. Short-term cultured renal carcinoma cells (RCC) were incubated with developmental peptides. […] While not wishing to be bound to theory, the anti-proliferative effect of developmental peptides is thought to be due to the developmental peptides induction of mitochondrial alterations in the malignant cells, as analyzed using JC-1 staining, a process which invariably leads to cell death. […] Thus, low concentrations of developmental peptides may enhance the efficacy of a chemotherapy regimen.

For data set [2], the system named is renal cancer cells (surgical specimen). As to the kind of experiment: Proliferation of cells from a surgical renal cancer specimen. Format: cell-based. The following applies: about 24-30 hrs; chemotherapies at high concentrations of approximately 10-100 fold. Here is the method: Cells were incubated with purified developmental peptides for approximately 24-30 hrs. While developmental peptides were effective in inhibiting proliferation of the renal cancer cells, two standardly used chemotherapies (a 5-FU regimen and a vinblastine regimen) remained ineffective, even at a high concentrations of approximately 10-100 fold.

The test system of data set [3] is MCF-7 breast cancer cells. As to the kind of experiment: 3H thymidine incorporation assay on MCF-7 cells. Format: cell-based. The conditions noted are these: about 1.5-12 mg/ml, low concentrations. Here is the method:
Isolation of the 9AA peptide from the adult mammalian liver. Fresh adult rabbit liver tissues were collected and homogenized on ice with H20. The samples were centrifuged at 15,000 g and the sample was filtered using Amicon filters 3000-10000 Da, <3000-500, and <500. Fractions collected were tested for activity using the MCF-7 cells. […] Separation by reverse phase HPLC yielded a 90% inhibition of cancer cells.
In a similar manner adult frozen porcine liver was collected and homogenized with H2O at 4° C. The suspension was centrifuged at 15,000 g and the pellet discarded. The suspension was filtered and the fraction <3000 Da was collected and run using reversed phase HPLC C18 column with a 0-95% acetonitrile gradient. […] Antiproliferative activity was tested by collecting the fractions, drying and suspending the sample in media and adding to MCF7 cells for 48 hours. Incorporation of 3H thymidine into cellular DNA of MCF-7 breast cancer cells was used to determine the anti-proliferative activity.
3H Thymidine assay. […] Cell from each well were transferred to a scintillation vial and counted in a Beckman Counter Model LS-133 scintillation counter.
A breast cancer cell line (MCF-7) and human mammary epithelial cells (HMEC) were incubated with the 9 AA developmental peptides of SEQ ID NO: 2. […] The antiproliferative response was repeated and analyzed using the XTT method. […]
(Uptake of a labelled nucleoside into DNA is a usual measure of proliferation.)

The test system of data set [4] is human mammary epithelial cells (HMEC). As to the kind of experiment: 3H thymidine labeling of DNA in normal HMEC cells. Format: cell-based. The following applies: about 1.5-12 mg/ml, low concentrations. Here is the method: 3H Thymidine assay. In particular the tritiated thymidine assays were performed as follows. 10,000 cells were plated in 1 ml of RPMI 1640 medium containing 10% fetal bovine serum in 24-well plates. The cultures were incubated for 24 hours at 37 C, 5% carbon dioxide. The peptide was added to each corresponding well at different doses and allowed to incubate for 72 hours. The cells were then exposed to tritiated thymidine at a concentration of 1 uCi/ml (ICN, cat #2403905) and incubated at 37 C for 4 hours. The cells were washed twice with cold PBS to remove non-incorporated thymidine. The cells were treated twice with 10% trichloracetic acid (Fisher, lot #94276913), 1 ml per well. The cells were then disrupted by treatment with 10% sodium lauryl sulfate (Sigma, Cat#L-3771) at 500 ul/well. Cell from each well were transferred to a scintillation vial and counted in a Beckman Counter Model LS-133 scintillation counter.
A breast cancer cell line (MCF-7) and human mammary epithelial cells (HMEC) were incubated with the 9 AA developmental peptides of SEQ ID NO: 2. 3H thymidine labeling of DNA was used to analyze the anti-proliferative effect of developmental peptides using concentrations in the range of about 1.5-12 mg/ml developmental peptides. […] The antiproliferative response was repeated and analyzed using the XTT method. […]

The subject of a further data set is MCF-7 cells. As to the kind of experiment: XTT method on MCF-7 cells. The following applies: about 1.5 mg/ml. Format: cell-based. Here is the method:
(§1) XTT method. A commercial (Roche, N.J.) kit was used. At the end of the experiment the XTT labeling mixture was coupled to the electron reagent coupling and was added to the cultured cells in microplate for 4 hours. The microplate was placed in an ELISA microplate reader (Molecular devices, Menlo Park, Calif.).
(§2) A breast cancer cell line (MCF-7) and human mammary epithelial cells (HMEC) were incubated with the 9 AA developmental peptides of SEQ ID NO: 2. 3H thymidine labeling of DNA was used to analyze the anti-proliferative effect of developmental peptides using concentrations in the range of about 1.5-12 mg/ml developmental peptides. […] The antiproliferative response was repeated and analyzed using the XTT method. […] Finally, this same analysis was repeated using resistant prostate cancer cells, the PC3 cell line, which are androgen receptor negative cells. Developmental peptides was added to the cells using concentrations of about 6-25 mg/ml for 24 hours in the presence of 3H thymidine to measure the effect of developmental peptides on cell proliferation.
In general terms: Tetrazolium dyes change colour on reduction, which living cells bring about.

Another data set relates to HMEC cells. Put plainly: XTT method on HMEC cells. Format: cell-based, human. The conditions noted are these: about 1.5 mg/ml. Here is the method: as §1, §2
Data set [5] has as its system PC3 cell line (androgen receptor negative prostate cancer cells). Format: cell-based. The following applies: about 12-25 mg/ml, 24 hours.
For a further data set, the system named is rat embryo cultures. As to the kind of experiment: Rat embryo culture teratogenicity (roller bottle system). The conditions noted are these: 48 hours, about 500 μg/ml. Here is the method:
Rat embryo cultures were exposed to synthetic developmental peptides of about 9 AA (about 500 μg/ml) for 48 hours (FIG. 6).

With `CN(Cc1cnc2nc(N)nc(N)c2n1)c1ccc(C(=O)N[C@@H](CCC(=O)O)C(=O)O)cc1` [methotrexate], the “cell viability / cell death in RCC, P1 staining” value (from here on “cell viability / cell death”) in data set [1] is given as “failed to induce cell death”.

`CC[C@]1(O)C[C@@H]2CN(CCc3c([nH]c4ccccc34)[C@@](C(=O)OC)(c3cc4c(cc3OC)N(C)[C@H]3[C@@](O)(C(=O)OC)[C@H](OC(C)=O)[C@]5(CC)C=CCN6CC[C@]43[C@@H]65)C2)C1` [vinblastine]: in data set [2], the “inhibition of renal cancer cell proliferation” value is reported as “ineffective”.

`O=c1[nH]cc(F)c(=O)[nH]1` [5-FU]: in data set [2], the “inhibition of renal cancer cell proliferation” value is listed as “ineffective”.

Take `CC(=O)O[C@H]1C(=O)[C@@]2(C)[C@H]([C@H](OC(=O)c3ccccc3)[C@]3(O)C[C@H](OC(=O)[C@H](O)[C@@H](NC(=O)c4ccccc4)c4ccccc4)C(C)=C1C3(C)C)[C@]1(OC(C)=O)CO[C@@H]1C[C@@H]2O` [paclitaxel]: in data set [1], the “cell viability / cell death” value is listed as “failed to induce cell death”.

Take “H-VLGKRIKGT-OH [9 AA developmental peptides, N-Val-Leu-Gly-Lys-Arg-Ile-Lys-Gly-Thr-OH]”: the “antiproliferative response, 3H thymidine” value in data set [3] is reported as “antiproliferative response was maintained”. In data set [4], the “effect on normal HMEC cells, 3H thymidine” value is recorded as “absence of any harmful or negative effect”. For the same compound, the “antiproliferative effect, XTT” value in the data set on MCF-7 cells is “maintained the antiproliferative effect”. Also, in the data set on HMEC cells, the “effect on HMEC cells, XTT” value was “minimal effect”. Further, the “inhibition of PC3 proliferation, 3H thymidine” value in data set [5] is given as “approximately 98%”. In the data set with rat embryo cultures, the “development of viscera yolk sac and embryo” value was “developed normally”; the teratogenicity result was “not teratogenic”.

Consider `COc1cc([C@@H]2c3cc4c(cc3[C@@H](O[C@@H]3O[C@@H]5CO[C@@H](C)O[C@H]5[C@H](O)[C@H]3O)[C@H]3COC(=O)[C@H]23)OCO4)cc(OC)c1O` [etoposide], for which, in data set [1], the “cell viability / cell death” value is given as “failed to induce cell death”.
